Laboratory results published in article PMC7125190, “Native/citrullinated LL37-specific T-cells help autoantibody production in Systemic Lupus Erythematosus” (Scientific Reports, 2020).
Non-standard residues stand in square brackets, D forms with d. Residues, ends and D or L forms follow the SMILES beside them. No end group written: not given here. Cit = NC(=O)NCCC[C@H](N)C(=O)O

What was measured:
[1] = tested on: SLE/CLE CD4+ T-cell clones; test: T-cell clone reactivity (BrdU, HLA-matched B-LCLs pulsed with peptide); format: cell-based, human; settings: clones from one SLE and one CLE patient
Procedure: PBMCs were purified, from EDTA-treated blood, on Ficoll-Hypaque (Pharmacia Fine Chemicals, Uppsala, Sweden) were incubated (10^5 cells/well) in 96-well-flat-bottom-microplates (BD) in T cell-medium (RPMI 1640, 10% heat-inactivated human serum, HS, Gibco), 2 mM L-glutamine, 10 U/mL penicillin, and 100 μg/mL streptomycin), with/without peptides. We performed assays on fresh cells, within 1-to-3 hours from collection, or on PBMCs frozen in 90% FCS-10%DMSO, whose viability we assessed by Trypan blue exclusion, at inverted microscope. Recovery of live cells was between 65 and 85 % of the frozen number. At day3 and 5, BrdU was added (1 μg/mL). BrdU-incorporation was detected by APC-labeled anti-BrdU antibody (BD Pharmingen), after surface staining by flow cytometry. Internal control for T-cell viability and proliferation was PHA treatment (2 μg/mL). SI for proliferation was calculated by dividing percent of BrdU-staining in the presence of each peptide used to stimulate cells by percent of BrdU-staining in the absence of peptide stimulation. SI for proliferation was considered positive when>3. This cut-off was obtained by calculating the mean+2DS [1.5 + 2 (0.6)] (of the stimulation indexes calculated as above) of the proliferation of HD. […]
Assays were repeated twice with each patient. […] Ror-ɣt and Bcl-6 were measured by intracellular staining and flow cytometry, after 48 hours culture with LL37 or control antigen, and were analyzed on CD38highCD4 T-cells. […]
PBMCs were stimulated (2x10^6 cells/mL) with LL37 for 7 days and re-stimulated (10 days) with LL37-pulsed (10 µg/mL) autologous-ɣ-irradiated-(30Gy)-PBMCs in T-cell medium in the presence of human/recombinant (hr)IL-2 (Boehringer-Mannheim, Indian, USA). T cell lines-specificity was analyzed by using peptide-pulsed (0.1-10 µg/mL) autologous-irradiated PBMCs (30Gy) or lymphoblastoid-cell-lines (B-LCLs) (150Gy, 33). […]
analyzed by flow-cytometry (after staining by BrdU-detection kit, BD Pharmingen). […] Clones reactivity and HLA-restriction were analyzed using HLA-matched-homozigous B-LCLs, pulsed with […]

HLA-DR1 (DRB1*0101) = biological target: T1, HLA-DR1 (DRB1*0101) (Homo sapiens, UniProt P01903+P01911, A100R/D57E/F55L/F60I/F76Y/I96L/L162R/M171V/P40L/Q125E/R42F/V115G/Y59C); test: HLA-DR folding assay (LOCI/AlphaScreen) peptide binding; settings: axis "Peptide (nM)", LOCI, 48 h at 18 °C, L243 acceptor beads, five-fold titrations, one representative experiment of two shown, read-out: average Ko
T1 construct: made in house; host or cells: E. coli
Procedure: (§1) Human recombinant HLADRA1*01:01, HLA-DRB1*01:01, and HLA-DRB1*15:01 were expressed in E. coli and purified in a series of liquid chromatography based steps[71].
(§2) We performed peptide-MHC binding assays by two different protocols by ImmunAware, Denmark and Benaroya Institute (USA). In the first protocol, binding was measured using a Luminescent Oxygen Channelling Immunoassay (LOCI), marketed by Perkin Elmer as AlphaScreen[72]. This is a nonradioactive bead-based homogenous proximity assay, where the donor beads containing a photosensitizer compound upon excitation with light at a 680 nm wavelength, converts ambient oxygen to energy-rich, short-lived singlet oxygen; that is transferred to a acceptor beads in close proximity only. The acceptor beads can respond to singlet oxygen with a luminescence/ fluorescence cascade leading to an amplified signal in the 520–620 nm range. As one tag binding to the donor beads: a biotin group engineered unto the HLA β chain. As the other tag binding to the acceptor beads: conformation-dependent HLA class II specific antibody (L243). Thus, only when a fully folded complex is present will the donor and acceptor beads come in sufficient close proximity and give a measurable signal. Biotinylated recombinant HLA class II molecules were diluted from an 8 M urea buffer into a folding buffer (PBS, 20% glycerol, Protease inhibitor mix) with peptide concentrations ranging from 0.13 nM to 10,000 nM. The analysed peptides were tested in 5-to-8 five-fold concentration titrations spanning from 20 μM to 0.3 nM. The reaction mixtures were incubated for 48 h at 18 °C to allow for peptide-HLA complex formation reaching steady state. After incubation, 15 μL of the folding mixture was transferred to a 384-well Optiplate (PerkinElmer) followed by addition of 15 μL of a solution containing L243 acceptor beads and streptavidin donor beads (final concentration of beads was 5 μL/mL). The plates were incubated over night at 18 °C, and then measured in enVisionTM, Perkin Elmer. Assay signals measured in […] were plotted against the offered peptide concentrations, and analyzed by non-linear regression using GraphPad Prism. […]
(§3) Figure S7. […] (A,B) Binding of LL37-peptides to HLA-DR1 (DRB1*0101) and to HLA-DR15 (DRB1*1501) was evaluated by a HLA-DR folding assays and detected by Luminescent Oxygen Channelling Immunoassay (LOCI) described in MM. […] (C-F) Binding to DR16 (DRB1*1601), DRB5 (HLA-DRB5*0101), DR4 (HLA-DRB1*0401) and DR10 (DRB1*1001) was evaluated by peptide competitionassay as in MM, and evaluated fluorimetrically. […]

CD3+CD4+ T-cells = test: T-cell proliferation assay (BrdU incorporation of PBMC); format: cell-based, human; settings: SLE/CLE PBMC, day 6, BrdU
Procedure: PBMCs were purified, from EDTA-treated blood, on Ficoll-Hypaque (Pharmacia Fine Chemicals, Uppsala, Sweden) were incubated (10^5 cells/well) in 96-well-flat-bottom-microplates (BD) in T cell- […]
penicillin, and 100 μg/mL streptomycin), with/without peptides. We performed assays on fresh cells, within 1-to-3 hours from collection, or on PBMCs frozen in 90% FCS-10%DMSO, whose viability we assessed by Trypan blue exclusion, at inverted microscope.
At day3 and 5, BrdU was added (1 μg/mL). BrdU-incorporation was detected by APC-labeled anti-BrdU antibody (BD Pharmingen), after surface staining by flow cytometry. Internal control for T-cell viability and proliferation was PHA treatment (2 μg/mL). SI for proliferation was calculated by dividing percent of BrdU-staining in the presence of each peptide used to stimulate cells by percent of BrdU-staining in the absence of peptide stimulation. SI for proliferation was considered positive when>3. This cut-off was obtained by calculating the mean+2DS [1.5 + 2 (0.6)] (of the stimulation indexes calculated as above) of the proliferation of HD.
Basal % of proliferation was set using, as reference, an isotype matched antibody staining (APC- […]
Assays were repeated twice with each patient. In rare cases in which background proliferation exceed antigen-specific proliferation the assay was repeated three times. Concomitant phenotype analysis of LL37-responder T-cells included staining for CD4, CD8, CXCR5, PD1, ICOS, CCR6. […]

HLA-DR15 (DRB1*1501) = biological target: T2, HLA-DR15 (DRB1*1501) (Homo sapiens, UniProt P01903+P01911); test: HLA-DR folding assay (LOCI/AlphaScreen) peptide binding; settings: axis "Peptide (nM)", LOCI, 48 h at 18 °C, L243 acceptor beads, five-fold titrations, one representative experiment of two shown, read-out: average Ko
T2 construct: made in house; host or cells: E. coli
Procedure: as §1, §2, §3

[2] = tested on: serum antibodies (anti-native LL37/anti-cit-LL37); test: ELISA for autoantibody detection in sera; format: binding, human; settings: for Antibody response to control peptides in SLE: SLE sera, ELISA OD
Procedure: Anti-native/cit-LL37, other antigen antibodies (anti-DNA and anti-RNA), and total anti-human IgG were measured by ELISA as described. Briefly, 96-well flat-bottom plates (Non-Binding surface polystyrene, Corning, USA) are coated with 2 μg/mL of native LL37/cit-LL37 or control proteins or human DNA or human RNA[9] or anti-human IgG antibody (Sigma) in carbonate buffer (0.1 M NaHCHO3, pH 9) for 2 hours (or over night) and washed four times with PBS 0.1% Tween-20. This washing buffer was used for washing at all steps. The blocking buffer containing 2% bovine serum albumin (BSA, Sigma) in PBS was used for at least 1 hour (or over night) to saturate unspecific binding sites. After washing, sera were diluted at various concentrations (usually 1:100 or 1:200) in PBS 2% BSA (cell culture supernatants were diluted 1:2, 1:4 or 1:10) followed by 1 hour incubation with a horseradish peroxidase–conjugated (HRP) goat anti-human IgG (Sigma-Aldrich), diluted 1:10,000 in PBS. The color was developed for 5 minutes with 3,3’,5,5’-tetramethylbenzidine (TMB) substrate (Sigma-Aldrich). The reaction was stopped by adding 50 μl of 2 N H2SO4, and absorbance determined at 450 nm with a reference wavelength of 540 nm. Anti-dsDNA in sera of lupus patients were detected by the standard clinical test Kallestad Crithidia luciliae Complete Kits for detection and semi-quantitation of autoantibodies to native DNA (nDNA) antigens by indirect fluorescence antibody (IFA) procedure. ELISA for detection of anti-tetanus antibodies (anti-TT) was from Abnova (Taiwan).

DNA = settings: cited from earlier work

CPKYVKQNTLKLATG [HA306–320, promiscuously presented peptide derived from the hemoagglutinin protein of Influenza A, reference compound]
T-cell clone reactivity [1]: did not cross-react

KDFLRNLVPRTES [P7]
Kd (HLA-DR1 (DRB1*0101)): 60 nM

GIINTLQKYYCRVRGGRCAVLSCLPKEEQIGKCSTRGRKCCRRKK [HBD3, control unrelated AMP human β-defensin-3, reference compound]
T-cell response to control or short peptides (CD3+CD4+ T-cells): not significant

LLGDFFRKSKEKIGK [P1]
Kd (HLA-DR15 (DRB1*1501)): 700 nM

CC[C@H](C)[C@H](NC(=O)[C@H](CCCCN)NC(=O)[C@H](CCC(=O)O)NC(=O)[C@H](CCCCN)NC(=O)[C@H](CO)NC(=O)[C@H](CCCCN)NC(=O)[C@H](CCCNC(N)=O)NC(=O)[C@H](Cc1ccccc1)NC(=O)[C@H](Cc1ccccc1)NC(=O)[C@H](CC(=O)O)NC(=O)CNC(=O)[C@H](CC(C)C)NC(=O)[C@@H](N)CC(C)C)C(=O)NCC(=O)N[C@@H](CCCCN)C(=O)O [cit-P1] (H-LLGDFF[Cit]KSKEKIGK-OH)
Kd (HLA-DR15 (DRB1*1501)): 3440 nM

CC(C)C[C@H](NC(=O)[C@H](Cc1ccccc1)NC(=O)[C@H](CC(=O)O)NC(=O)[C@@H](N)CCCCN)C(=O)N[C@@H](CCCNC(N)=O)C(=O)N[C@@H](CC(N)=O)C(=O)N[C@@H](CC(C)C)C(=O)N[C@H](C(=O)N1CCC[C@H]1C(=O)N[C@@H](CCCNC(N)=O)C(=O)N[C@H](C(=O)N[C@@H](CCC(=O)O)C(=O)N[C@@H](CO)C(=O)O)[C@@H](C)O)C(C)C [cit-P7] (H-KDFL[Cit]NLVP[Cit]TES-OH)
Kd (HLA-DR1 (DRB1*0101)): 305 nM

SETR(cit)PVLNR(cit)LFDKIR(cit)QVIR(cit)KEFEKGIKEKSKR(cit)FFDGLL [cit-REV, citrullinated REV peptide, reference compound]
RA sera with antibody reactivity ([2]; RA sera, 14 of 70): 20% | Antibody response to control peptides in SLE [2]: negative

SETRPVLNRLFDKIRQVIRKEFEKGIKEKSKRFFDGLL [REV, reference compound]
DNA-binding activity (DNA): retains DNA-binding activity | T-cell response to control or short peptides (CD3+CD4+ T-cells): did not elicit T-cell responses | Antibody response to control peptides in SLE [2]: negative
